IC50 and logP data for 13 molecules are collected here from ChEMBL document CHEMBL3826918, “Recent developments of C-4 substituted coumarin derivatives as anticancer agents” (Eur J Med Chem, 2016).

One data set deals with A-375. Briefly: Cytotoxicity against human A375 cells assessed as reduction in cell viability measured after 48 hrs by MTT assay. Type of data set: functional, cell-based. To be noted: A-375, 48 h. On the technique in general: Tetrazolium assays rely on reduction of a dye to a coloured formazan, in cell work by metabolically active cells.
The next data set concerns MRC5. Briefly: Cytotoxicity against human MRC5 cells assessed as reduction in cell viability measured after 48 hrs by MTT assay. Type of data set: functional, cell-based. The conditions noted are these: MRC5, 48 h.
The nature of data set [1]: Inhibition of TNF-alpha induced NF-kappaB transcriptional activity in HEK293 cells expressing NF-kappaB-Luc measured after 48 hrs by luciferase assay. The conditions noted are these: Homo sapiens, HEK293, 48 h. The data set is classed as cell-based.
For data set [2], the target named is T1, Steryl-sulfatase (Homo sapiens, UniProt P08842).
T1 sequence (P08842 whole entry): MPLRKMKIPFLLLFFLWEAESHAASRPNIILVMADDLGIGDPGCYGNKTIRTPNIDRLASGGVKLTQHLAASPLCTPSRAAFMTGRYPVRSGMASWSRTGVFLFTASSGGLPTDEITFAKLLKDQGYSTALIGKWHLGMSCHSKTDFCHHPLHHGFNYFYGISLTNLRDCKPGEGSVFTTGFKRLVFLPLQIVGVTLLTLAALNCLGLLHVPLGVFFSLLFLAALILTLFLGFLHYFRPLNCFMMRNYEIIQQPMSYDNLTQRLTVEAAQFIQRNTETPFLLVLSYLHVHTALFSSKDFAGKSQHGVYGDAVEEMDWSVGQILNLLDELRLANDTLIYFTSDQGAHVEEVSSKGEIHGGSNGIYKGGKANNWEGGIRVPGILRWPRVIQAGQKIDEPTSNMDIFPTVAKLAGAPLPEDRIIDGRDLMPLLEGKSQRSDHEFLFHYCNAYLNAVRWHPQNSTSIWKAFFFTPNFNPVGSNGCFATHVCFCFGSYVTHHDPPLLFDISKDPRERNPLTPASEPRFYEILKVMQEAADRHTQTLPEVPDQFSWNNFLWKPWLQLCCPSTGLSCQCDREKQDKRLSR
As to the kind of experiment: Inhibition of sulphatase in human MCF7 cells assessed as inhibition of E1-STS activity. Type of data set: cell-based.

Data set [3] can be described thus: Octanol-water partition coefficient, log P of the compound. Type of data set: physicochemical.
A short description of data set [4]: Cytotoxicity against human hTERT-HME1 cells assessed as reduction in cell viability by MTT assay. Type of data set: functional, cell-based.
Data set [5] deals with MDA-MB-231. Briefly: Cytotoxicity against human MDA-MB-231 cells assessed as reduction in cell viability by MTT assay. The data set is classed as functional, cell-based.
Data set [6] relates to MCF7. As to the kind of experiment: Cytotoxicity against human MCF7 cells assessed as reduction in cell viability by MTT assay. Type of data set: functional, cell-based.
Data set [7] addresses T2, Aromatase (Homo sapiens, UniProt P11511).
T2 sequence (P11511 whole entry): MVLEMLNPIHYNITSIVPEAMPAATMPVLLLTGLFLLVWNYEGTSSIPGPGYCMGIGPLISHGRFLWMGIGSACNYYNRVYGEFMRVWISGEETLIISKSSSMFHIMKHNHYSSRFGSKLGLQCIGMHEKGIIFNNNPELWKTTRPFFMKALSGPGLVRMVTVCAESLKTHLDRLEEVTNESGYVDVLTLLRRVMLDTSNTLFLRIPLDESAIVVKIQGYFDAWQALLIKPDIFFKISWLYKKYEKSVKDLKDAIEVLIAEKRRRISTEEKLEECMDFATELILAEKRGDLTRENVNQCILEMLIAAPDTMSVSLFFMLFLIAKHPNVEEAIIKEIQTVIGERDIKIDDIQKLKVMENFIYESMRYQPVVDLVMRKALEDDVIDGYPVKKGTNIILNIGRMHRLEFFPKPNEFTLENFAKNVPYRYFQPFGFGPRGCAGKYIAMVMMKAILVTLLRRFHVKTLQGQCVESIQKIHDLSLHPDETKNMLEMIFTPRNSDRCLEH
Type of data set: cell-based, MCF7.
Description: Inhibition of aromatase in human MCF7 cells using [1beta-3H]androstenedione as substrate measured after 1 hr by liquid scintillation counting method

Data set [8] has as its target T1, Steryl-sulfatase. Briefly: Inhibition of placental sulphatase (unknown origin).
Data set [9] concerns the target T2, Aromatase.
Description: Inhibition of aromatase (unknown origin) preincubated for 10 mins in presence of NADPH generating system followed by addition of dibenzylfluorescein as substrate measured after 30 mins by fluorescence quenching assay
The test system of a further data set is A549. As to the kind of experiment: Antiproliferative activity against human A549 cells over-expressing CK2 assessed as growth inhibition. Type of data set: functional, cell-based.
A further data set addresses Casein kinase II (Homo sapiens, UniProt P19784+P67870+P68400). Briefly: Inhibition of recombinant human N-terminal 6His-tagged CK2 expressed in baculovirus infected Sf21 cells in presence of ATP by radiometric assay.
Data set [10] concerns MDA-MB-231. As to the kind of experiment: cells. The conditions noted are these: Homo sapiens.
Description: Antiproliferative activity against human MDA-MB-231 cells
A short description of data set [11]: Antiproliferative activity against human PC3 cells. Type of data set: functional, cell-based. To be noted: PC-3.
Data set [12] concerns MCF7. Briefly: cells. To be noted: Homo sapiens.
Description: Antiproliferative activity against human MCF7 cells

Usually IC50 stands for the concentration needed to halve the response being measured. Usually logP stands for a log measure of how a compound divides between an organic and an aqueous phase. Low readings indicate a more hydrophilic compound, high ones a more lipophilic compound.

Chain of Casein kinase II (P67870 whole entry): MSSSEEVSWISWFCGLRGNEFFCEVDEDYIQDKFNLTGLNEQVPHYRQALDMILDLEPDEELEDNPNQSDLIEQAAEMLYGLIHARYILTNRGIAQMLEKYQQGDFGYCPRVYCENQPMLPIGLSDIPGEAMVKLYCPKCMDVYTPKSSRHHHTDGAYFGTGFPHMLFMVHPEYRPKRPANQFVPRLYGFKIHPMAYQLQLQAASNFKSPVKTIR
Chain of Casein kinase II (P68400 whole entry): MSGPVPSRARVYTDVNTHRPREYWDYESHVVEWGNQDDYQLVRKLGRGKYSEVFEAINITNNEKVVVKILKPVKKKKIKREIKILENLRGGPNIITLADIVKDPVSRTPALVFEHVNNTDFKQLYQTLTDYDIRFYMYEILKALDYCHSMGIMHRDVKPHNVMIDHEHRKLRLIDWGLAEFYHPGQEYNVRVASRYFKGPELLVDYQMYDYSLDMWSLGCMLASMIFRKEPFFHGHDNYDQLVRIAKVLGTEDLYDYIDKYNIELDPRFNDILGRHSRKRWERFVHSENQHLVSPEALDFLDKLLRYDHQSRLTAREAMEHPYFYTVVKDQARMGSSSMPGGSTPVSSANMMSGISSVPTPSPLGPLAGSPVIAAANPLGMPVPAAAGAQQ
Chain of Casein kinase II (P19784 whole entry): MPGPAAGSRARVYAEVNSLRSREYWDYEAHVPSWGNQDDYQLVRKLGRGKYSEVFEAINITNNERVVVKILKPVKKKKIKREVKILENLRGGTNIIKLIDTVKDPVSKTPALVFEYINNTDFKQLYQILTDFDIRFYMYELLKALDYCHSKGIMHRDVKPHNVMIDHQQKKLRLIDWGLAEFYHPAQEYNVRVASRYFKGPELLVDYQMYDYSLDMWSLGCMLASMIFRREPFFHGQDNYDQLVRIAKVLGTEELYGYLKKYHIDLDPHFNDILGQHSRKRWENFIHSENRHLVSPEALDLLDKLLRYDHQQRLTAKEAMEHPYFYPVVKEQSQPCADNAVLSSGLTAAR

Take `O=c1cc(-c2ccccc2)c2ccc(O)c(O)c2o1`: the 50% inhibitory concentration (IC50) with A-375 was determined as 39 µM; in the data set with MRC5, 47 µM.
With `COc1cc(C2CC(=O)Oc3cc4c(cc32)OCO4)cc(OC)c1OC` (centres undefined), the IC50 in [1] worked out at 0.11 µM.
In the case of `Cc1cc(=O)oc2ccc(OS(N)(=O)=O)cc12`, the IC50 at Steryl-sulfatase [2] is 0.38 µM.
`COc1cc(C2CC(=O)Oc3cc4c(cc32)OCO4)cc(OC)c1O` (centres undefined) had a logP in data set [3] of 2.17.
As to `COc1ccc2c(CSC3=CC(=O)c4ccccc4C3=O)cc(=O)oc2c1`, the values for the IC50 (in data set [4]; with MDA-MB-231 [5]; with MCF7 [6]) were 18.1 µM, 9.5 µM and 11.2 µM, respectively.
With `COc1ccc2c(Cc3ccccc3)c(-c3ccc(Cl)cc3)c(=O)oc2c1`, the midpoint of inhibition at Aromatase [7], the IC50, lay at 0.08 µM.
As for `NS(=O)(=O)Oc1ccc2c(c1)OC(=O)C1CCCCCCCCCCC21` (centres undefined), on Steryl-sulfatase [8], the IC50 is 0.001 µM.
`COc1cc(C2CC(=O)Oc3cc4c(cc32)OCO4)cc(OC)c1OC(C)=O` (centres undefined) gave a logP in data set [3] of 2.17. In addition, at Aromatase [9], half-maximal inhibition (IC50) required 12.1 µM.
Consider `O=C1C=C(SCc2cc(=O)oc3cc(O)ccc23)C(=O)c2ccccc21`, for which the IC50 in [4] worked out at 18.1 µM; with MDA-MB-231 [5] it was 9.5 µM; in the data set on MCF7 [6], 11.2 µM.
As for `O=c1cc(C(F)(F)F)c2ccc(O)c(Cl)c2o1`, the IC50 with A549 came to 20.2 µM; on Casein kinase II, 0.4 µM.
Consider `COc1cc(C2CC(=O)Oc3cc4c(c(OC)c32)OCO4)cc(OC)c1OC` (centres undefined), for which, in data set [1], the IC50 turned out to be 0.11 µM.
Consider `O=C(c1ccc(OCCN2CCCCC2)cc1)c1c(-c2ccc(O)cc2)sc2cc(O)ccc12` [RALOXIFENE], for which the IC50 with MDA-MB-231 [10] is 18.5 µM; in [11], over 40 µM; in the data set on MCF7 [12], 15.4 µM.
For `CC/C(=C(\c1ccccc1)c1ccc(OCCN(C)C)cc1)c1ccccc1` [TAMOXIFEN] the same measures were 17.9 µM, over 40 µM and 13.7 µM.
